The text below walks through data of patent publication US20240173255A1, “Polymeric Micelle Coated with Chain-Like Poorly Soluble Drug, Preparation Method and Application” (Hangzhou Hanjing Biotechnology Co., Ltd, priority 2021, published 2024).

Data set [1] is described as follows: Stability test in blood. The class given is in vitro ADME. The following applies: 37° C., 2 h, FIG. 4. As for the experimental part: Taking the polymeric micelle prepared according to Example 2 as an example: in a 96-well plate, 10 μL of the polymeric micelle was added, then 190 μL of blood was added and shaken quickly to be uniform. At 37° C., a resulting mixture was taken out at preset time points of 5 min, 30 min, 60 min, and 120 min separately, and centrifuged at 3,000 rpm for 10 min to separate a plasma layer (upper layer) and a red blood cell layer (lower layer), each 100 μL. The plasma and red blood cell samples were treated using an organic solvent extraction method, and a concentration of CPD14 molecules in the samples was quantified and analyzed using HPLC (gradient method), while CPD14 molecules not entrapped by Soluplus were used as a control.

The subject of data set [2] is mouse liver cancer H22 cells. Description: Cancer cell inhibition test (EZMTT), H22. It is filed as cell-based. To be noted: 5 days culture. As for the experimental part:
(§1) Taking the polymeric micelle prepared according to Example 2 as an example: the polymeric micelle was added to a 96-well plate, and 1,000 each of […] lung cancer A549 cells and mouse liver cancer H22 cells were added to each well.

Data set [3] has as its system H22 mouse liver cancer subcutaneous tumor transplants. Nature of the data set: Treatment test on subcutaneous tumor transplants in mice. The class given is in vivo. The following applies: ICR mice, 20 mg/kg tail vein once a day for 10 days, tumors removed on 11th day. As for the experimental part: 30 ICR mice weighing about 20 g were randomly divided into 3 groups, with 10 mice in each group. Liver cancer H22 cells were inoculated subcutaneously into the right armpit of mice. The next day, mice in Group 1 were injected with CPD14 injection without Soluplus prepared according to Example 2 at 20 mg/kg through the tail vein; mice in Group 2 waere injected with the polymeric micelle prepared according to Example 2 at 20 mg/kg through the tail vein; and mice in Group 3 were injected with the Soluplus blank micelle without drug at 20 mg/kg through the tail vein. The mice were injected once a day for 10 consecutive days, and the body weight of the mice was recorded and the status of the mice was observed every day. On the 11th day, the tumors of the mice were removed and measured.

In data set [4] the test system is mouse lung cancer A549 cells. Description: Cancer cell inhibition test (EZMTT), A549. To be noted: 5 days culture. The class given is cell-based. As for the experimental part:
as §1

The nature of data set [5]: Bioavailability test (pharmacokinetics) in ICR mice. To be noted: 10 mg/kg tail vein injection. It is filed as in vivo, mouse. As for the experimental part: 36 Institute of Cancer Research (ICR) mice weighing about 20 g were randomly divided into 2 groups, with 18 mice in each group. The mice all were separately administered using a CPD14 injection without Soluplus entrapment prepared according to Example 2 and the polymeric micelle prepared according to Example 2 in the same concentration, at a dose of 10 mg/kg by tail vein injection. Blood was collected at 0.003 h, 0.17 h, 0.5 h, 1 h, 2 h, 4 h, 8 h, 12 h, and 24 h after administration, and a plasma concentration of CPD14 was measured after treating the whole blood or plasma.

Data set [6] can be described thus: Solubility of series A to E drugs in water and 10% Soluplus solution. It is filed as physicochemical. An excerpt: The solubilities of the poorly soluble chain-like drugs of the series A to E according to the present disclosure in water and a 10% Soluplus solution are shown in Table 2.
Data set [7] in a line: Hydrophobic constant. It is filed as physicochemical. The text has this: (§2) The hydrophobic constants and solubilities of the selenium-containing glutaminase inhibitors from series A to E prepared according to Examples 1 to 5 of the present disclosure as well as the commercially available ethaselen in water, dimethylsulfoxide (DMSO), and Soluplus solutions are shown in Table 4.

A short description of data set [8]: Solubilities of ethaselen and compounds of Examples 1 to 5 in water, DMSO and Soluplus solutions. The class given is physicochemical.
Text: as §2

What is called IC50 is the concentration that inhibits the measured activity by half. For orientation: Cmax means the highest concentration seen after dosing. The Tmax is the time at which the peak concentration occurs. Broadly, the Solubility is how much of the substance goes into solution per volume.

The structures appear in SMILES notation. In brackets after ≈: the same amount, converted by molar mass. Read-outs that look alike come from different tables or passages of the source.

Turning to `COc1ccc2[se]n(CCCCCCn3[se]c4ccc(O)cc4c3=O)c(=O)c2c1` [CPD14], the “stability rate in blood” value in data set [1] was “significantly lower than that of the polymeric micelle”. Further, half-maximal inhibition in data set [2] (IC50) was put at 510 ± 40 nM. In addition, the “Tumor weight of H22 tumor transplant” value in data set [3] is on record as 2.15 ± 0.05 g. The compound also showed an IC50 in data set [4] of 490 ± 70 nM. Further, in data set [5], the “AUC0 h→24 h” value amounted to 9600 ± 1100 ng·h/mL, the CL worked out at 17 ± 2 mL/min/kg, the Cmax is 6600 ± 700 ng/mL and the T1/2β came out at 102 ± 0.6 min. For the same compound, the time to peak (Tmax) in data set [5] was found to be 1.98 min. Further, the “Solubility in 10% Soluplus” value in data set [6] (10% Soluplus solution) was more than 1000 µg/mL. In data set [6] (water), this compound displayed a Solubility in water of 10 µg/mL (≈ 19.1 µM).
On to `O=c1c2ccccc2[se]n1CCn1[se]c2ccccc2c1=O` [Ethaselen, ethaselen], for which the Hydrophobic constant in data set [7] is 1.87. In addition, the Solubility in data set [8] (DMSO, organic solvent or mixture, read-out: Solubility in DMSO) is 22000 µg/mL (≈ 52100 µM); in data set [8] (water, read-out: Solubility in Water) it was 2 to 3 µg/mL (≈ 4.74 to 7.11 µM).
